Source: the supplement of paper PMC11061612

Experiments:
RVH-421 (Melanoma) [1] = assay: Bliss excess, mean over the matrix (fraction); higher = more synergy
Outline: (§1)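 After 24 hours at 37°C and 5% CO2 in 1536-well plates, cells in DMEM/F12 or RPMI plus 10% FBS received two-drug dose matrices for 72 hours. Viability came from CellTiter-Glo 2.0 luminescence and was scaled as inhibition, anchored at 0 by vehicle wells and at 1 by blank wells. Combination Emax is taken as the second-highest inhibition in the matrix, and Bliss excess as the observed combination effect less EA + EB − EA·EB, with EA and EB the single-agent effects.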

[2] = system: BC-1 (B-Cell Non-Hodgkin's Lymphoma); assay: combination Emax (second highest fraction inhibited in the dose matrix, 72 h); higher = more inhibition; extreme values may be limits of the assay
Outline: as §1

[3] = system: BT-474 (Breast Carcinoma); assay: as above
Outline: as §1

[4] = system: C2BBe1 (Colorectal Carcinoma); assay: as above
Outline: as §1

DK-MG (Glioblastoma) = assay: as above
Outline: as §1

GCIY (Gastric Carcinoma) = assay: as above
Outline: as §1

[5] = system: JJN-3 (Plasma Cell Myeloma); assay: as above
Outline: as §1

[6] = system: JURL-MK1 (Chronic Myelogenous Leukemia); assay: as above
Outline: as §1

[7] = system: L-363 (Plasma Cell Myeloma); assay: as above
Outline: as §1

[8] = system: NCI-H1975 (Lung Adenocarcinoma); assay: as above
Outline: as §1

[9] = system: NCI-H2170 (Squamous Cell Lung Carcinoma); assay: as above
Outline: as §1

[10] = system: OCI-M1 (Acute Myeloid Leukemia); assay: as above
Outline: as §1

[11] = system: OVKATE (Ovarian Carcinoma); assay: as above
Outline: as §1

[12] = system: RS4-11 (B-Lymphoblastic Leukemia); assay: as above
Outline: as §1

RVH-421 (Melanoma) [13] = assay: as above
Outline: as §1

SK-N-DZ (Neuroblastoma) = assay: as above
Outline: as §1

[14] = system: TK (B-Cell Non-Hodgkin's Lymphoma); assay: as above
Outline: as §1

[15] = system: TOV-21G (Ovarian Carcinoma); assay: as above
Outline: as §1

M14 (Melanoma) [16] = assay: Bliss excess, mean over the matrix (fraction); higher = more synergy
Outline: as §1

M14 (Melanoma) [17] = assay: combination Emax (second highest fraction inhibited in the dose matrix, 72 h); higher = more inhibition; extreme values may be limits of the assay
Outline: as §1
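For Bliss excess, mean over the matrix in this document: after 72 h of two-drug dosing.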

Row | Compound | Bliss excess (RVH-421 (Melanoma) [1]) | combination Emax [2] | combination Emax [3] | combination Emax [4] | combination Emax (DK-MG (Glioblastoma)) | combination Emax (GCIY (Gastric Carcinoma)) | combination Emax [5] | combination Emax [6] | combination Emax [7] | combination Emax [8] | combination Emax [9] | combination Emax [10] | combination Emax [11] | combination Emax [12] | combination Emax (RVH-421 (Melanoma) [13]) | combination Emax (SK-N-DZ (Neuroblastoma)) | combination Emax [14] | combination Emax [15] | Bliss excess (M14 (Melanoma) [16]) | combination Emax (M14 (Melanoma) [17])
1 | CN(CCO)CC[C@H](CSc1ccccc1)Nc1ccc(S(=O)(=O)NC(=O)c2ccc(N3CCC([C@@H](O)c4ccccc4-c4ccc(Cl)cc4)CC3)cc2)cc1S(=O)(=O)C(F)(F)F [AZD4320] + C[C@@H]1COCCN1C2=NC(=NC(=C2)C3(CC3)[S@](=N)(=O)C)C4=C5C=CNC5=NC=C4 [AZD6738] (first compound max 1 µM, 7x7, partner max 10 µM) | -0.0511 | 0.901 | 0.259 | 0.494 | 0.359 | 0.918 | 0.797 | 1 | 0.853 | 0.481 | 0.829 | 1 | 0.621 | 1 | 0.387 | 1 | 1 | 0.824 |  | 
2 | Cc1cc2ncnn2cc1Nc1ncc2c(n1)n(C1CCOCC1)c(=O)n2C [AZD7648] + CN(C)CCCOc1ccc(-c2ccc3ncc4c(c3c2)n(C2CCOCC2)c(=O)n4C)cn1 [AZD0156] (first compound max 10 µM, 7x7, partner max 1 µM) | -0.0099 | 0.634 | 0.234 | 0.211 | 0.27 | 0.437 | 0.17 | 0.406 | 0.393 | 0.398 | 0.335 | 0.173 | 0.35 | 0.246 | 0.274 | 0.31 | 0.204 | 0.169 |  | 
3 | Cc1cc2ncnn2cc1Nc1ncc2c(n1)n(C1CCOCC1)c(=O)n2C [AZD7648] + CCN(CCO)CCCOc1ccc2c(Nc3cc(CC(=O)Nc4cccc(F)c4)[nH]n3)ncnc2c1 [AZD2811] (first compound max 10 µM, 7x7, partner max 1 µM) | -0.0193 | 0.871 | 0.237 | 0.196 | 0.273 | 0.49 | 0.308 | 0.601 | 0.413 | 0.384 | 0.696 | 0.237 | 0.27 | 0.968 | 0.299 | 0.635 | 0.281 | 0.327 |  | 
4 | C=CCn1c(=O)c2cnc(Nc3ccc(N4CCN(C)CC4)cc3)nc2n1-c1cccc(C(C)(C)O)n1 [AZD1775] + C1CN(CCC1(C(=O)N[C@@H](CCO)C2=CC=C(C=C2)Cl)N)C3=NC=NC4=C3C=CN4 [Capivasertib] (first compound max 3 µM, partner max 3 µM) |  | 0.97 | 0.47 | 0.533 | 0.485 | 0.668 |  | 0.986 | 0.939 | 0.714 | 0.828 | 0.974 | 0.322 | 0.939 |  | 0.921 | 0.909 | 0.85 | 0.0065 | 0.766
5 | Cc1cc2ncnn2cc1Nc1ncc2c(n1)n(C1CCOCC1)c(=O)n2C [AZD7648] + C=CCn1c(=O)c2cnc(Nc3ccc(N4CCN(C)CC4)cc3)nc2n1-c1cccc(C(C)(C)O)n1 [AZD1775] (first compound max 10 µM, partner max 1 µM) | 0.0039 | 0.997 | 0.324 | 0.345 | 0.43 | 0.49 | 0.704 | 0.99 | 0.979 | 0.421 | 0.741 | 0.87 | 0.422 | 0.952 | 0.289 | 0.927 | 0.895 | 0.56 |  | 
6 | Cc1cc2ncnn2cc1Nc1ncc2c(n1)n(C1CCOCC1)c(=O)n2C [AZD7648] + C[C@@H]1COCCN1C2=NC(=NC(=C2)C3(CC3)[S@](=N)(=O)C)C4=C5C=CNC5=NC=C4 [AZD6738] (first compound max 10 µM, 7x7, partner max 10 µM) | 0.0381 | 0.941 | 0.24 | 0.311 | 0.273 | 0.774 | 0.694 | 1 | 0.849 | 0.423 | 0.657 | 0.956 | 0.377 | 0.871 | 0.322 | 0.949 | 0.91 | 0.579 |  | 
